For orientation: IC50 means the concentration that gives 50% inhibition.

The values that follow come from US20090099195A1 (ASTRAZENECA AB, priority 2007, published 2009).

Experiment [1] addresses T1, rat P2X2/3 (rat P2X3 co-expressed with rat P2X2) (Rattus norvegicus, UniProt P49653+P49654).
T1 sequence (P49654 1-397): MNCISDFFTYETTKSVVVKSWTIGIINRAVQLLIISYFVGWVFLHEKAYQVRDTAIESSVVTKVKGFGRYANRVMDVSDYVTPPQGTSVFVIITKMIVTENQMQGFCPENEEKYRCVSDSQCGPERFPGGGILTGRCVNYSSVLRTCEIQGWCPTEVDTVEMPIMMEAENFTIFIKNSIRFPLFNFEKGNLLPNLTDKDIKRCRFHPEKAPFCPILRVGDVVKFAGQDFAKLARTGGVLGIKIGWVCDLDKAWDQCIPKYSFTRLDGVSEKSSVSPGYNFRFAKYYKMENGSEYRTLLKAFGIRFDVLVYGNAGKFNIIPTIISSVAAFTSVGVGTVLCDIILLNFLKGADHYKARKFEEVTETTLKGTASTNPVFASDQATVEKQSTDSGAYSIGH
T1 sequence (P49653 1-472): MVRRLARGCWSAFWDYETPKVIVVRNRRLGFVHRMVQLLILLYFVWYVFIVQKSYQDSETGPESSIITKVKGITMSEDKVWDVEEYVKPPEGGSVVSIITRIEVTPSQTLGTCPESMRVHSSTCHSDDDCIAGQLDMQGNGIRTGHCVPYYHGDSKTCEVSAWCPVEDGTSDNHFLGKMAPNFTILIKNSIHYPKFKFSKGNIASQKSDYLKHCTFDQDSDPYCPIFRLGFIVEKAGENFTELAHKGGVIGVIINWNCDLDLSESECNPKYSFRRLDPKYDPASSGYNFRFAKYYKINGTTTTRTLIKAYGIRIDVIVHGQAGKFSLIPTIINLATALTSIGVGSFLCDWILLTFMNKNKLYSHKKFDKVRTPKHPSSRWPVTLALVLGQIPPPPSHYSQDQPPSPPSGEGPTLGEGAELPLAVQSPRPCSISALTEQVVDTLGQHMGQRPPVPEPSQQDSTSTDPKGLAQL
Kind of experiment: rat P2X2/3 FLIPR calcium (Fluo-4) antagonist assay. The note with it: Rat P2X2/3 FLIPR Mean IC50 (nM), HEK-TREX cells, tetracycline-induced rat P2X3 with constitutive rat P2X2; agonist 500 nM α,β-methylene-ATP.
Experimental: (§1) The assay used a calcium indicator dye (Fluo-4) that emits fluorescence, the intensity of which is related to the concentration of calcium that entered the cell when P2X3 was activated and the channel opened. Activation of hP2X3 or rat P2X3 and rat P2X2/3 (from the coexpression of rat P2X3 and rat P2×2) is elicited the by P2X3 agonist α,β methylene-ATP (Sigma M6517), and the resulting fluorescence is measured with a FLIPR II™ instrument (Molecular Devices). Compounds are tested for their ability to inhibit the agonist-induced fluorescent signal.
(§2) For the rat P2X2/3 HEK-TREX cells, induction of the rat P2X3 expression is used to generate the rat P2X2/3 channels in HEK-TREX cells and performed by addition of 1 μg/mL tetracycline (Invitrogen) 24 h prior to compounds testing to the HEK-TREX expressing the rat P2X2 constitutively. On the day of the experiment, the cells and test compounds are prepared as follows. […] After preparing the compounds, the medium is removed from the cell plates by inversion. A loading solution of 30 μL assay buffer containing 4 μM of the calcium indicator dye FLUO-4 AM (Molecular Probes F14202) is added to each well using a Multidrop (Labsystems). […] The incubation is terminated by washing the cells four times in assay buffer using a Skatron Embla (Molecular Devices), and 25 μL of assay buffer was left in each well. Cell plates are then transferred to the FLIPR. Experiments are initiated by measuring a baseline fluorescence reading for 10 seconds, followed by the addition of 12.5 μL of cpds and data sampling for a total 280 seconds. The experiments are terminated by addition of 12.5 μL of a reference agonist (500 nM α,β-methylene-ATP) or buffer, producing a final assay volume of 50 μL followed by data sampling for an additional 280 seconds.
(§3) In P2X3 antagonist experiments (human and rat assays) data are analysed as normalised maximal peak fluorescence monitored following agonist addition and calculated as percent of relative fluorescent counts from control agonist. The dose-response antagonist inhibition curves are analyzed in a 4-parameter sigmoidal fit using a non-linear curve-fitting program (XLfit version 5.0.6, ID Business Solutions Limited, Guildford, UK).

Experiment [2] concerns the target T2, hP2X3 (human Purinergic P2X receptors subtype 3), clone A (Homo sapiens, UniProt P56373).
T2 sequence (P56373 1-397): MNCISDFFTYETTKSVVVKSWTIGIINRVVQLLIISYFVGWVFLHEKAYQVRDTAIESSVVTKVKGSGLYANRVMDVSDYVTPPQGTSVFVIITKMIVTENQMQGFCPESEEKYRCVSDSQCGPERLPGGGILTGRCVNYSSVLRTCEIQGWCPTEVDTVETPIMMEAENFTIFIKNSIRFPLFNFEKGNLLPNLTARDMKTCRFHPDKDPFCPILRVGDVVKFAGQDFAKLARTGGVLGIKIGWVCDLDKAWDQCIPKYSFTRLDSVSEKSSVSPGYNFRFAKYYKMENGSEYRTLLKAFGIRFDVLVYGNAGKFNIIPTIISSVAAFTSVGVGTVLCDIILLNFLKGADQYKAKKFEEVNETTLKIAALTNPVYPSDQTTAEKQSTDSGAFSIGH
Kind of experiment: hP2X3 FLIPR calcium (Fluo-4) antagonist assay, clone A. Conditions: Human P2X3 FLIPR Clone A Mean IC50 (nM), RLE cells expressing hP2X3 clone A (AB016608); agonist 500 nM α,β-methylene-ATP.
Experimental: as §1, §2, §3

The target of experiment [3] is T3, hP2X3 (human Purinergic P2X receptors subtype 3), clone B (Homo sapiens, UniProt P56373).
T3 sequence (P56373 1-397): T2 sequence (P56373 1-397)
Kind of experiment: hP2X3 FLIPR calcium (Fluo-4) antagonist assay, clone B. Conditions: Human P2X3 FLIPR Clone B IC50 (nM), RLE cells expressing hP2X3 clone B (NM_002559); agonist 500 nM α,β-methylene-ATP.

For `CC(C)N1Cc2c(NC(C)(C)Cc3ccc(Cl)cc3)nc(N3CCN(C)C(=O)C3)nc2C1=O` [Example 69, 4-{[2-(4-chlorophenyl)-1,1-dimethylethyl]amino}-6-isopropyl-2-(4-methyl-3-oxopiperazin-1-yl)-5,6-dihydro-7H-pyrrolo[3,4-d]pyrimidin-7-one], the IC50 was 1920 nM in experiment [1], 86.2 nM in experiment [2] and 140 nM in experiment [3].

With `CC(=O)N1CCN(c2nc(NCc3ccc4ncccc4c3)c3c(n2)C(=O)N(C(C)C)C3)CC1` [Example 235, 2-(4-acetylpiperazin-1-yl)-6-isopropyl-4-(quinolin-6-ylmethylamino)-5H-pyrrolo[3,4-d]pyrimidin-7(6H)-one], the half-inhibitory concentration (IC50) in experiment [1] amounted to 13800 nM; in experiment [3], 83 nM.

`CC(=O)N1CCN(c2nc(NC(C)(C)Cc3ccc(C)cc3)c3c(n2)C(=O)N(C(C)C)C3)CC1` [Example 164, 2-(4-acetylpiperazin-1-yl)-6-isopropyl-4-(2-methyl-1-p-tolylpropan-2-ylamino)-5H-pyrrolo[3,4-d]pyrimidin-7(6H)-one]: the values for the IC50 in experiment [1] and in experiment [3] were 2910 nM and 56 nM, respectively.

With `CCN(Cc1cc2ccccc2cn1)c1nc(N2CCN(C(C)=O)CC2)nc2c1CN(C(C)C)C2=O` [Example 245, 2-(4-acetylpiperazin-1-yl)-4-(ethyl(isoquinolin-3-ylmethyl)amino)-6-isopropyl-5H-pyrrolo[3,4-d]pyrimidin-7(6H)-one], the half-inhibitory concentration (IC50) came to 2160 nM in experiment [1] and 28 nM in experiment [3].

With `CC(=O)N1CCN(c2nc(NC(C)c3cnn(-c4ccccc4F)c3)c3c(n2)C(=O)N(C(C)C)C3)CC1` (centres unmarked) [Example 149, 4-(4-acetylpiperazin-1-yl)-2-[1-[1-(2-fluorophenyl)pyrazol-4-yl]ethylamino]-8-propan-2-yl-3,5,8-triazabicyclo[4.3.0]nona-1,3,5-trien-7-one], the 50% inhibitory concentration (IC50) was 5070 nM in experiment [1] and 260 nM in experiment [3].

Turning to `CC(=O)N1CCN(c2nc(NCc3cc(-c4ccccc4)no3)c3c(n2)C(=O)N(C(C)C)C3)CC1` [Example 147, 4-(4-acetylpiperazin-1-yl)-2-[(3-phenyl-1,2-oxazol-5-yl)methylamino]-8-propan-2-yl-3,5,8-triazabicyclo[4.3.0]nona-1,3,5-trien-7-one], the figures for the half-maximal inhibitory concentration (IC50) in experiment [1] and in experiment [3] were 1230 nM and 41 nM, respectively.

With `CC(=O)N1CCN(c2nc3c(c(N4CCCC4c4cnc5ccccc5c4)n2)CN(C(C)C)C3=O)CC1` (single isomer, unassigned) [Example 282, 4-(4-acetylpiperazin-1-yl)-8-propan-2-yl-2-(2-quinolin-3-ylpyrrolidin-1-yl)-3,5,8-triazabicyclo[4.3.0]nona-1,3,5-trien-7-one], the IC50 in experiment [1] was determined as 2530 nM; in experiment [3] it was 550 nM.

As for `CC(=O)N1CCN(c2nc(N[C@H](C)c3cnc4ccccc4c3)c3c(n2)C(=O)N(C(C)C)C3)CC1` (single isomer, unassigned) [Example 344], the values for the IC50 in experiment [1] and in experiment [3] were 234 nM and 35 nM, respectively.

`CC(=O)N1CCN(c2nc3c(c(N4CCCC4c4ccc5ncccc5c4)n2)CN(C(C)C)C3=O)CC1` (centres unmarked) [Example 281, 4-(4-acetylpiperazin-1-yl)-8-propan-2-yl-2-(2-quinolin-6-ylpyrrolidin-1-yl)-3,5,8-triazabicyclo[4.3.0]nona-1,3,5-trien-7-one]: the figures for the IC50 in experiment [1] and in experiment [3] were 11400 nM and 140 nM, respectively.

As for `CCOc1ccc(C2CCCN2c2nc(N3CCN(C(C)=O)CC3)nc3c2CN(C(C)C)C3=O)cc1` (centres unmarked) [Example 272, 4-(4-acetylpiperazin-1-yl)-2-[2-(4-ethoxyphenyl)pyrrolidin-1-yl]-8-propan-2-yl-3,5,8-triazabicyclo[4.3.0]nona-2,4,10-trien-7-one], the concentration for half-maximal inhibition (IC50) in experiment [1] was determined as 12900 nM; in experiment [3] it was 270 nM.

On to `CC(=O)N1CCN(c2nc(N[C@H](C)c3ccc4c(c3)CCCC4)c3c(n2)C(=O)N(C(C)C)C3)CC1` [Example 166, (R)-2-(4-acetylpiperazin-1-yl)-6-isopropyl-4-(1-(5,6,7,8-tetrahydronaphthalen-2-yl)ethylamino)-5H-pyrrolo[3,4-d]pyrimidin-7(6H)-one], for which the concentration for half-maximal inhibition (IC50) in experiment [1] worked out at 1900 nM; in experiment [3], 47 nM.
